Measurements: US20210309669A1, “Heterocyclic Spiro Compounds As MAGL Inhibitors” (Pfizer Inc., priority 2018, published 2021)

Legend:
[1] = In vitro intrinsic clearance in human hepatocytes; assay type: in vitro ADME; conditions: 1 μM substrate, human hepatocytes 0.5 million viable cells per mL, 37° C.
Experimental: Test Compounds (Example 1-3 and Comparative-Compounds 1-4) were prepared as solutions in DMSO at 3 mM which were then diluted in media containing WEM. The final concentration of DMSO in the incubation was 0.03% (v/v). The in vitro half-life (t½) of each compound was determined in incubations containing substrate (1 μM), human hepatocytes (0.5 million viable cells per mL final concentration) in media containing WEM, 50 mM HEPES buffer (pH 7.4), and 26 mM sodium bicarbonate at 37° C. (all final concentrations) in a 96-well plate. The reaction mixture was pre-warmed at 37° C. for 30 min prior to the initiation of the incubation. The incubation was quenched with acetonitrile containing internal standards at the following time points: 0, 5, 15, 30, 60, 120, and 240 min (individual incubation plates per time point). The samples were vortexed followed by centrifugation. An aliquot of supernatant was transferred to a clean 96-well plate and analyzed by LC/MS-MS using multiple reaction monitoring. For control experiments, hepatocytes were omitted from the incubations.
The hepatocyte t½ (min) was obtained from a log-linear plot of the substrate depletion versus incubation time and was scaled to hepatic intrinsic clearance (CLint,app (μL/min/million cells) using the following equation: […]

[2] = Mouse subcutaneous neuropharmacokinetics study; assay type: in vivo, Male C57Bl6 mice; conditions: male, C57Bl6, mouse, brain (cerebellum homogenate) and plasma, sc, subcutaneous dose of 1 mg/kg, read-out: Mouse Cb,u/Cp,u
Experimental: The neuropharmacokinetics studies in mouse were conducted at Wuxi (Shanghai, China) with bioanalysis conducted at BioDuro (Beijing, China) with the exception of the Comparative-compound 3, which bioanalysis was conducted at Wuxi. All in vivo studies were conducted in accordance with regulations and established guidelines using protocols reviewed and approved by the Pfizer Worldwide Research and Development (WRD, or other) Institutional Animal Care and Use Committee.
Male C57Bl6 mice were maintained on a 12-h light/dark cycle in a temperature- and humidity-controlled environment with free access to food and water. The test compounds (Examples 1 and 2 and Comparative Compounds 1-3) were administered as a subcutaneous dose of 1 mg/kg which was delivered in a dose volume of 10 mL/kg. The dose solution for all compounds was formulated in 5% DMSO/5% cremophor/90% saline. Blood and brain samples were collected at 0.5, 1, 2, 4, 8, 12, and 24 h post-dose (n=3 per time point). Blood samples were collected into tubes containing sodium fluoride and 4-(2-aminoethyl)benzenesulfonyl fluoride hydrochloride (AEBSF; final concentration 2 mg/mL) to inhibit hydrolase activity and placed on wet ice. Following centrifugation to afford plasma, the samples were transferred to polypropylene tubes and stored frozen at −20° C. to −80° C. until analysis. Immediately following blood collection the mice were euthanized by cervical dislocation and the brains were removed. The cerebellum was immediately frozen in liquid nitrogen and stored at −80° C. until analysis.
Cerebellum samples were thawed, diluted 1:4 (w/v) with water, and homogenized using an H-speed dispersator. Standards and controls were prepared in a similar manner using a brain homogenate prepared from untreated animals. The plasma standard curves were generated with species specific plasma. All plasma and brain homogenate samples were quantified via LC/MS-MS using multiple reaction monitoring with non-validated methods.
Equilibrium dialysis using standard procedures [See Di et al., “Species independence in brain tissue binding using brain homogenates”; Drug Metab Dispos 39:1270-1277, 2011) were used for determination of the unbound fraction of the test compounds (Examples 1 and 2 and Comparative Compounds 1-3) in mouse plasma (fu,p; see Di et al., “impact of recovery on fraction unbound using equilibrium dialysis”; J Pharm Sci 101:1327-1335, 2012) and unbound fraction in rat brain homogenate (fu,b; see Di et al., “Species independence in brain tissue binding using brain homogenates”; Drug Metab Dispos 39:1270-1277, 2011). The determination of the unbound fraction in plasma also included the addition of AEBSF at a final concentration of 2 mg/mL to the incubation.
The pharmacokinetic parameters were computed by non-compartmental analysis using Watson Bioanalytical LIMS version 7.5. The AUC values were calculated using the linear trapezoidal method for both brain and plasma. Measured total plasma (Cp) and brain (Cb; assuming brain tissue density of 1 g/mL) concentrations were converted to unbound (free) values using the matrix specific binding factor (fu, p or fu,b) to determine free plasma (Cp,u) and free brain (Cb,u) values. All neurocompartmental ratios (Cb,u/Cp,u) were calculated through use of AUC values with the exception of Comparative Compounds 1 and 2 which used the mean of individual animal values due to insufficient data to calculate an AUC value.

[3] = Dog intravenous pharmacokinetic study; assay type: in vivo, Male beagle dogs; conditions: male, beagle, IV dose of 1 mg/kg, plasma, read-out: Dog t1/2 (converted)
Experimental: The pharmacokinetic studies in dog were conducted at Pfizer Global Research and Development (Groton, Conn.). All in vivo studies were conducted in accordance with regulations and established guidelines using protocols reviewed and approved by the Pfizer Worldwide Research and Development (WRD, or other) Institutional Animal Care and Use Committee.
Male beagle dogs were fasted overnight with water provided ad libitium. The dogs were fed at approximately 2-4 h post-dose. The dogs (n=2) were administered an IV bolus via the cephalic vein. Compounds of Examples 1-3 were tested along with the following four comparative compounds.
All test compounds were administered an IV dose of 1 mg/kg of the specified compound which was delivered in a dose volume of 0.5 mL/kg. The dose solution was formulated in 10% PEG400/90% of 23% (w/v) HPBCD in de-ionized water for the following test compounds: Example 1, Example 2, and Example 3; in 20% SBECD (sulfobutyl either β-cyclodextrin) for Comparative-Compound 3; in 23% (w/v) HPBCD (hydroxypropyl β-cyclodextrin) in water for Comparative Compound 2; in 12.5.% SBECD in water with 0.25% 0.1N HCl to pH 5 for Comparative Compound 1. Serial blood samples were collected from each dog via the jugular vein prior to dose administration and at the following time points post-dose: 0.083, 0.25, 0.5, 1, 2, 4, 7, and 24 h for all compounds with an additional time point of 0.016 h collected for Comparative Compound 1 only. Blood samples were collected into tubes containing EDTA and placed on wet ice. Following centrifugation to afford plasma, the samples were transferred to polypropylene tubes and stored frozen at −20° C. to −80° C. until analysis.
All plasma samples were quantified via liquid chromatography/tandem mass spectrometry (LC/MS-MS) using multiple reaction monitoring with non-validated methods. The plasma standard curves were generated with species specific plasma. Pharmacokinetic parameters were determined by non-compartmental analysis using Watson LIMS software version 7.4 (Thermo Fisher Scientific, Waltham, Mass.). The area under the concentration versus time curve (AUC) was calculated from the first time point to the last time point with measurable drug concentration using a linear trapezoidal rule. The area under the concentration versus time curve from the first time point to time infinity (AUC(0-inf)) was calculated by extrapolation from the time point where the last measurable concentration occurred to time infinity by dividing the observed concentration at the last time point by the elimination rate constant determined using linear regression of plasma concentration versus time data. The plasma clearance (CLp) was calculated by the equation CLp=dose/AUC(0-inf). The elimination half-life (t½) was calculated using the following equation t1/2=ln 2/k; k is equal to the rate constant of elimination calculated by the least squares of the log transformed data.

[4] = In vitro intrinsic clearance in human liver microsomes (HLM); assay type: in vitro ADME; conditions: pH 7.4, 1 μM substrate, NADPH, 37° C., read-out: HLM CLint, app
Experimental: Test Compounds (Example 1-3 and Comparative-Compounds 1-4) were prepared as solutions in DMSO. The final concentration of DMSO in the incubation was <0.1% (v/v). […] (all final concentrations) in a 384-well plate. The reaction mixture was pre-warmed at 37° C. for 10 min prior to initiation of the incubation. The incubation was quenched with acetonitrile containing internal standards at the following time points: 1, 4, 7, 12, 20, 25, 45, and 60 min (individual incubation plates per time point) with a subsequent addition of water. The samples were vortexed followed by centrifugation and the supernatant was analyzed by LC/MS-MS using multiple reaction monitoring. For control experiments, NADPH was omitted from the incubations.
The microsomal t½ (min) was obtained from a log-linear plot of the substrate depletion versus incubation time and was scaled to hepatic intrinsic clearance (CLint,app (μL/min/mg protein) using the following equation: […]

SMILES | HHEPs CLint, app [1] [μL/min/million] | Kp,uu (unbound brain/unbound plasma ratio) [2] | half-life [3] [h] | microsomal CLint at 1 μM [4] [µL/min/mg]
CN([C@H]1COC2(CCN(C(=O)O[C@H](CO)C(F)(F)F)CC2)C1)S(=O)(=O)c1ccccc1 [Comparative-Compound 3, (2R)-1,1,1-trifluoro-3-hydroxypropan-2-yl (3R)-3-[methyl(phenylsulfonyl)-amino]-1-oxa-8-azaspiro[4.5]decane-8-carboxylate] | 10.6 | 0.51 | 5 | 14.8
CN([C@H]1COC2(CCN(C(=O)O[C@H](CO)C(F)(F)F)CC2)C1)S(=O)(=O)CC1CC1 [Comparative-Compound 1, (2R)-1,1,1-trifluoro-3-hydroxypropan-2-yl (3R)-3-{[(cyclopropylmethyl)sulfonyl](methyl)amino}-1-oxa-8-azaspiro[4.5]decane-8-carboxylate] | 5.5 | 0.18 | 0.5 | < 12.5
CN([C@H]1COC2(CCN(C(=O)O[C@H](CO)C(F)(F)F)CC2)C1)S(=O)(=O)C1CC1 [Comparative-Compound 2, (2R)-1,1,1-trifluoro-3-hydroxypropan-2-yl (3R)-3-[(cyclopropylsulfonyl)-(methyl)amino]-1-oxa-8-azaspiro[4.5]decane-8-carboxylate] | <3.52 | 0.29 | 1.31 | < 8
